From PMC7614683, “A small molecule PI3Kα activator for cardioprotection and neuroregeneration” (Nature, 2023)
Where two headings read alike, the source gives them in different places.

Tests used:
Test in all cases: SelectScreen Z-LYTE kinase activity assay (SI Table 6)
Assay type in all cases: biochemical
[1] = molecular target: protein kinases of the Z-LYTE panel (Homo sapiens, UniProt P14616)
Procedure, shortened: (§1)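 Compound 1938 counterscreened at 1 μM against 133 protein and 7 lipid kinases in the SelectScreen panel, using Adapta, LanthaScreen binding and Z-LYTE formats as applicable.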

[2] = molecular target: T1, protein kinases of the Z-LYTE panel (Homo sapiens, UniProt P51813)
T1 sequence (P51813 1-675): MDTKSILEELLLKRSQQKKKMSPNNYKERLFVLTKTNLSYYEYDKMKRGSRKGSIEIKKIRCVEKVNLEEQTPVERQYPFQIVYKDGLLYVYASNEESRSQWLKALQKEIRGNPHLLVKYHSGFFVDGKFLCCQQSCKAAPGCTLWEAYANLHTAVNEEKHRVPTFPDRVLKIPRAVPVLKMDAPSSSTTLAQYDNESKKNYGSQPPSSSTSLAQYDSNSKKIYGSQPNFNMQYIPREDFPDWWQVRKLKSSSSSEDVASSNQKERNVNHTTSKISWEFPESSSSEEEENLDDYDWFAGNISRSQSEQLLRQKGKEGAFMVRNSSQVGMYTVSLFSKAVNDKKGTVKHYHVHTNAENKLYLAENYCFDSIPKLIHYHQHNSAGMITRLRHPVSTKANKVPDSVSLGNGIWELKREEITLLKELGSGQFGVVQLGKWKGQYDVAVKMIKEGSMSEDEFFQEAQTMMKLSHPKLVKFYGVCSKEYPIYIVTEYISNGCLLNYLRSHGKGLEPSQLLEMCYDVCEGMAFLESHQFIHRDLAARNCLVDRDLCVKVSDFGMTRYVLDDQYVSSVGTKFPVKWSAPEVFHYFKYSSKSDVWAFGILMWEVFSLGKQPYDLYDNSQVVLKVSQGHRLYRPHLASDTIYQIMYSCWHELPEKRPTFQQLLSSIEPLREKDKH
Procedure, shortened: as §1

[3] = molecular target: protein kinases of the Z-LYTE panel (Homo sapiens, UniProt Q7KZI7)
Procedure, shortened: as §1

[4] = molecular target: T2, protein kinases of the Z-LYTE panel (Homo sapiens, UniProt Q12866)
T2 sequence (Q12866 21-999): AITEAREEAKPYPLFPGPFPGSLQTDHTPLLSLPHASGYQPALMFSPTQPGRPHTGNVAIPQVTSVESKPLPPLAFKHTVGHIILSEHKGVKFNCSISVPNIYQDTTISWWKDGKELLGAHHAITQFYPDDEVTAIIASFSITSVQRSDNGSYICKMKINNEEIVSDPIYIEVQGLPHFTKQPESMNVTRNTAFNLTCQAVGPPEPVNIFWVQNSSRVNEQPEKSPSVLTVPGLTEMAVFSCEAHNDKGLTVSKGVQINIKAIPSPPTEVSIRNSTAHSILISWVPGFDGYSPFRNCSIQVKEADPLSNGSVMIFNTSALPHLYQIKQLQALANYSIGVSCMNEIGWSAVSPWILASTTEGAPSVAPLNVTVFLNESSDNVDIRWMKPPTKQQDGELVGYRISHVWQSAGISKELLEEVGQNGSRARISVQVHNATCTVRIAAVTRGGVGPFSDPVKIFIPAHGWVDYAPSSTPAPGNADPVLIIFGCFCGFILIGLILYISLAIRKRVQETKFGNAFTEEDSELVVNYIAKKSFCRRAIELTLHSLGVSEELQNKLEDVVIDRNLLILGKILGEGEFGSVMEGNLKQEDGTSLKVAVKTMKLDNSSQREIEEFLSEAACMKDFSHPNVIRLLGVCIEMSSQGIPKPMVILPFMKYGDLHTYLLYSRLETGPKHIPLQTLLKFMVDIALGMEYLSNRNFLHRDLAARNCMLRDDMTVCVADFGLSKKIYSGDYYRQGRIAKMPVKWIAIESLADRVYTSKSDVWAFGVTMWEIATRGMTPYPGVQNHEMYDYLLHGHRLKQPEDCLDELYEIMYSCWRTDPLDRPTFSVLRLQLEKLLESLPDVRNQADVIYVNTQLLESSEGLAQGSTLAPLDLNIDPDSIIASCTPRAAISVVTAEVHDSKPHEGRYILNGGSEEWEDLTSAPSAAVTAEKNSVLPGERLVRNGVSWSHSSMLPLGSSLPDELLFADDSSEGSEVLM
Procedure, shortened: as §1

Chain of protein kinases of the Z-LYTE panel (Homo sapiens, UniProt Q7KZI7) (Q7KZI7 whole entry): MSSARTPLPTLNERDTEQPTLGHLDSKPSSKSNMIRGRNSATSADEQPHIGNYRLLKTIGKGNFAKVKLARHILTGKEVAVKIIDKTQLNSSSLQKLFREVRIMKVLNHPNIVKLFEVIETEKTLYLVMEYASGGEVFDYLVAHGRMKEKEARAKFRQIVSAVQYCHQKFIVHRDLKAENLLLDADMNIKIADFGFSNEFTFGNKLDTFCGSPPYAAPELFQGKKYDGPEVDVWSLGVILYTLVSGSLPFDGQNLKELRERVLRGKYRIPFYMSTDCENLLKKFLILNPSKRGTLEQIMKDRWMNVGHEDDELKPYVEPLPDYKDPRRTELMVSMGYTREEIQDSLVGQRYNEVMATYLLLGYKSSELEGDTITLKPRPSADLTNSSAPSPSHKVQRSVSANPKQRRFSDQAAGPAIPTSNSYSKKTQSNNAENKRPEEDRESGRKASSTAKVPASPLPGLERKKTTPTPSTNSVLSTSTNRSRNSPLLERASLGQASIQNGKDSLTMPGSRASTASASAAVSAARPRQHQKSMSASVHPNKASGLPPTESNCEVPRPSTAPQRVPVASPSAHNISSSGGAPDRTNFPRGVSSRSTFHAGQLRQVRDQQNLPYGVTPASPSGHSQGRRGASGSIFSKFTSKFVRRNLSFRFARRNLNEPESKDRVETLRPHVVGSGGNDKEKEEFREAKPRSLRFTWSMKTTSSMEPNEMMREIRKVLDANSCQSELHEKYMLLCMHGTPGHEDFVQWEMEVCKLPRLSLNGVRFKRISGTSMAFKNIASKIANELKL
Chain of protein kinases of the Z-LYTE panel (Homo sapiens, UniProt P14616) (P14616 27-1297): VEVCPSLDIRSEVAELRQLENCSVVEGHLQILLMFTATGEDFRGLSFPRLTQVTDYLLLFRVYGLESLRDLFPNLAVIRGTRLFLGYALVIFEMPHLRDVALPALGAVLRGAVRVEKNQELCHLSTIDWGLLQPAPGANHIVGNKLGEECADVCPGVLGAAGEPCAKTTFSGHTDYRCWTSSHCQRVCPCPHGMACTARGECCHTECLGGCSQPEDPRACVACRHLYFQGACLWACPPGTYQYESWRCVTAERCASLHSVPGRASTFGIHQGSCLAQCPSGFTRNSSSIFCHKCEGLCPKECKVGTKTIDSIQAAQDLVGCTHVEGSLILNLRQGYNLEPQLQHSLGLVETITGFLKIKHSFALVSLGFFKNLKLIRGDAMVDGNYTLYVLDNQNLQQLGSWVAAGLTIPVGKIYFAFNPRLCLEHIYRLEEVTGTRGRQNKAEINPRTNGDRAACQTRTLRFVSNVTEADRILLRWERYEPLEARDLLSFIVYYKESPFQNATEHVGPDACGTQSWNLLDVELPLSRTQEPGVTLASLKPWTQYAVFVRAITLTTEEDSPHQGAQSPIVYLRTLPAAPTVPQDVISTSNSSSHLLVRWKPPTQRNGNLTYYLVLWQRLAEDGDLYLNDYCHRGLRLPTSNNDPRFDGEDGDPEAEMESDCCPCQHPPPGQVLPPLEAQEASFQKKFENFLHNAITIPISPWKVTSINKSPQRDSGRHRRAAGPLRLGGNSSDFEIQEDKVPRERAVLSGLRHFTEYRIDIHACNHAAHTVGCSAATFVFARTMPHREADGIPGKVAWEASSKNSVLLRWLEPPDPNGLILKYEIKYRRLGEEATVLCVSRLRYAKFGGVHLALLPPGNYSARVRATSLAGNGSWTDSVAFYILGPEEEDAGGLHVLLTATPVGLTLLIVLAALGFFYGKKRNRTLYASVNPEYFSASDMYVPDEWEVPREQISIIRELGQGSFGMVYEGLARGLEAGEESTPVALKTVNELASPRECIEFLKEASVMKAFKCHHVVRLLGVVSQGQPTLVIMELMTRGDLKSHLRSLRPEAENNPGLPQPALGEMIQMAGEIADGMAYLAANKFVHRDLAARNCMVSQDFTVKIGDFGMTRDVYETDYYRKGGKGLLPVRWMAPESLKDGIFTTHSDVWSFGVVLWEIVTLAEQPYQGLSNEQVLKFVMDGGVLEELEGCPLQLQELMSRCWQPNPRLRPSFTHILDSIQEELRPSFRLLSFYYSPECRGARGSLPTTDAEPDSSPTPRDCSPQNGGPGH

## CCN1CCN(c2ccc(Nc3cc(Nc4cccc5c4N(C(C)=O)CC5)ccn3)cc2)CC1 [Compound 1938]
[1]; read-out: % Inhibition Point 1
  inhibition at 1 µM: 9%
[1]; read-out: % Inhibition Point 2
  inhibition at 1 µM: 8%
[1]; read-out: % Inhibition mean
  inhibition at 1 µM: 8%
[2]; read-out: % Inhibition Point 1
  inhibition at 1 µM: 19%
[2]; read-out: % Inhibition Point 2
  inhibition at 1 µM: 25%
[2]; read-out: % Inhibition mean
  inhibition at 1 µM: 22%
[3]; read-out: % Inhibition Point 1
  inhibition at 1 µM: 6.48%
[3]; read-out: % Inhibition Point 2
  inhibition at 1 µM: 4%
[3]; read-out: % Inhibition mean
  inhibition at 1 µM: 5.34%
[4]; read-out: % Inhibition Point 1
  inhibition at 1 µM: 12%
[4]; read-out: % Inhibition Point 2
  inhibition at 1 µM: 9%
[4]; read-out: % Inhibition mean
  inhibition at 1 µM: 11%
